Key:
TLR8 = conditions: cited from earlier work
[1] = test system: mixed human atheroma cell culture; experiment: IFNα production (ELISA) in mixed cell type atheroma cell culture; assay type: cell-based; conditions: 1 μM, 24 hours
Procedure: Carotid endarterectomies from patients undergoing surgery for carotid disease were obtained at Charing Cross Hospital, London. The protocol was approved by the Research Ethics Committee RREC2989. All patients gave written informed consent, according to the Human Tissue Act 2004 (UK). Single cell suspensions of mixed cell types were obtained via enzymatic digestion and cultured for 24 hours as previously described (18).
SMC were cultured in 50 cm^2 tissue culture dishes and grown until near confluence. AthSMC and AoSMC were serum starved for 24 hours and then cultured in DMEM either alone or in the presence of 10 ng/ml IL1a, 100 ng/ml Pam3Cys, 100 ng/ml FSL-1 (Pam2CGDPKHPKSF), 25 μg/ml Poly(I:C), 100 ng/ml Lipopolysaccharide (LPS), 1 μg/ml R837 (Imiquimod) and 1 μg/ml PolyU (all purchased from Invivogen). […] The concentrations used were selected on the basis of dose-response experiments as the dose with maximal effect in absence of cell death monitored via MTT.
(§1) Cytokine production in supernatants of AthSMC and AoSMC were measured by ELISA using IL-6, IL-8 and CCL2/MCP-1 (Pharmingen, UK). IFNα was detected via a high sensitivity ELISA kit from R&D Systems. Each condition was tested in triplicate and each triplicate was analyzed separately. Concomitantly, viability was monitored with the use of 3-(4,5-dimethyl[…])-2,5-diphenyltetrazolium (MTT) (Sigma, UK).

[2] = test system: human atheroma-derived smooth muscle cells (AthSMC); experiment: Cytokine production (ELISA) by SMC stimulated with TLR agonists for 24 hours, AthSMC compared to AoSMC; assay type: cell-based; conditions: 24 hours stimulation
Procedure: AthSMC were isolated from the mixed atheroma cells via magnetic cell sorting (Miltenyi, MACS), utilizing anti-CD45 (pan-leukocyte marker) and anti-CD31 (endothelial cells) antibodies coupled to microbeads. SMC expressing SMC-alpha actin composed >90% of the cells. Control AoSMC were purchased from Promocell (Germany). Both SMC types were grown in SMC medium (Promocell, Germany) and used at passage 3 consistently in all experiments. The protocols of stimulation with TLR ligands are described below.
SMC were cultured in 50 cm^2 tissue culture dishes and grown until near confluence. AthSMC and AoSMC were serum starved for 24 hours and then cultured in DMEM either alone or in the presence of 10 ng/ml IL1a, 100 ng/ml Pam3Cys, 100 ng/ml FSL-1 (Pam2CGDPKHPKSF), 25 μg/ml Poly(I:C), 100 ng/ml Lipopolysaccharide (LPS), 1 μg/ml R837 (Imiquimod) and 1 μg/ml PolyU (all purchased from Invivogen). Cells were serum starved for 24 h prior to stimulation with the indicated agonists. Supernatants were collected 24 hours after stimulation and frozen at −80° C. for batch analysis via ELISA. In the experiments performed on the mixed human atheroma cell culture, cells were cultured immediately after isolation at 10^6 cells per milliliter in RPMI containing 5% fetal bovine serum (Biosera, UK) in the presence or absence of 25 μg/ml Poly(I:C), 1 μM CpG ODN2006 and 1 μM CpG ODN2006 control (Invivogen) for 24 and 48 hours. The concentrations used were selected on the basis of dose-response experiments as the dose with maximal effect in absence of cell death monitored via MTT.
as §1

AthSMC and AoSMC [3] = experiment: TLR3 gene expression by Q-PCR in stimulated SMC; assay type: cell-based, human; conditions: 5 hours
Procedure: Alternatively, AoSMc and AthSMC were stimulated with 25 μg/ml Poly(I:C) or interferon α (IFN α) at 10 ng/mL or IFNy at 10 ng/mL. Total RNA was extracted as before and TLR3 gene expression was quantified via Q-PCR with TaqMan® Gene Expression Assays (Hs01551078_m1*; Applied Biosystems Inc.).

[4] = test system: C57BL/6, ApoE−/− and TLR3−/− mice; experiment: Vascular gene expression (quantitative RT-PCR) 24 hours after a single i.p. dose of Poly(I:C); assay type: in vivo
Procedure: FIG. 2 Aortic gene expression of both pro- and anti-inflammatory factors is induced by Poly(I:C) stimulation. 10- and 30-week old C57BL/6, ApoE−/− and TLR3−/− mice were stimulated with PBS or 250 μg Poly(I:C) in PBS. 24 hours post-stimulation, mice were sacrificed, aortas harvested and RNA extracted. Gene expression of CCL5 (A), IL-10 (B), VCAM-1 (C) and IFNβ (D) was examined by quantitative RT-PCR. Bars show overall mean±SEM (n=3-5 mice per group; *p<0.05, **p<0.01, ***p<0.001 PBS v. Poly(I:C); unpaired student's t-test).
(§2) Total RNA was isolated from murine tissues using the Qiagen RNeasy kit (Qiagen, Crawley, UK) according to the manufacturer's instructions. Total RNA was treated with DNase I and reverse-transcribed to cDNA using M-MLV Reverse Transcriptase RNase H-, Point Mutant (Promega, UK) and oligo(dT) primer. RT-PCR was performed using TaqMan Gene Expression Assays (CCL5 (Mm01302427_m1), VCAM1 (Mm01320970_m1), CCL2 (Mm00441242_m1), TLR3 (Mm01207403_m1), IL-10 (Mm01288386_m1), PD-L1 (Mm00452054_m1*), PD-L2 (Mm00451734_m1*) IFNβ (Mm00439552_s1*), (Applied Biosystems) and TaqMan universal PCR Master Mix (Applied Biosystems) on a 7900HT Fast Real-Time PCR System (Applied BioSystems). PCR amplification was carried out for 40 cycles. Samples were normalized to β-actin. The 2-ΔΔCt method was used to analyze the relative changes in gene expression.

AthSMC and AoSMC [5] = experiment: Atherosclerosis RT2 Profiler PCR Array gene expression in SMC stimulated with Poly(I:C) for 5 hours; assay type: cell-based, human; conditions: 25 μg/ml
Procedure: SMCs were plated in 9.6 cm^2 dishes and grown until near confluence. SMCs were serum starved for 24 h prior to stimulation with 25 μg/ml Poly(I:C) for 5 hours. Total cellular RNA was extracted from SMC using RNeasy® Mini Kit (Qiagen) according to the manufacturer's instructions. To remove any residual genomic DNA, RNA samples were treated with DNase (TurboDNase, Ambion) according to manufacturer's instructions. RNA was reverse transcribed to cDNA using M-MLV Reverse Transcriptase (Promega, UK). Quantitative PCR (QPCR) analysis of 84 atherosclerosis related genes was performed using Atherosclerosis RT2 Profiler PCR Arrays (SA Bioscience Corporation, USA) as per the manufacturer's protocol. The complete list of the genes analyzed is available online at http://www.sabiosciences.com/rt_per_product/HTML/PAHS-038A.html. RT2 Profiler PCR arrays were run on an ABI 7900HT machine (Applied Biosystems). Duplicate arrays were run per condition for unstimulated and Poly (I:C)-stimulated AoSMC and AthSMC. Data analysis was performed using the manufacturer's integrated web-based software package for the PCR Array System using Ct based fold-change calculations.

TLR3−/− mice = experiment: Perivascular collar injury: elastic lamina breaks; assay type: in vivo; conditions: systemic administration 250 μg i.p.
Procedure: (§3) At 22 weeks of age, male C57BL/6 and TLR3^−/− mice were anesthetized with isofluorane by inhalation, the left carotid artery dissected and a non-occlusive tygon collar (length 2.5 mm; internal bore diameter, 510 μm, Cole-Parmer, London, UK) placed around the carotid artery. Mice received 250 μg Poly(I:C) (Sigma, Dorset, UK) or PBS intraperitoneally on alternate days for a total of 8 doses starting 4 days after surgery. Twenty-one days following collar placement, mice were euthanized, and neointima development and the presence of elastic lamina breaks were assessed as described below.
Elastin-stained slides were also used to assess the integrity of the elastic laminae. The portion of the carotid artery distal to the collar (the same as used for neointima assessment) was divided into 5 segments and representative sections from each segment were evaluated for the presence of interruptions in the elastic lamina. The width of any observed break was measured by drawing a line between the start and end of a break in the external elastic lamina using ProgRes CapturePro image analysis software (version 2.5.2.0, Jenoptik). The width of any elastic lamina break was calculated as the mean width of break across all sections examined for each mouse. […]

C57BL/6 and TLR3−/− mice = experiment: Perivascular collar injury: neointima formation (intima/media ratio); assay type: in vivo
Procedure: as §3
Twenty days following collar placement, mice were euthanized, terminal blood collected via cardiac puncture and the vasculature perfused with 0.9% saline. Injured carotids were dissected out and frozen at −80° C. in Optimal cutting temperature (OCT) compound (ThermoScientific, Runcorn, UK). Sham-operated contralateral arteries were used as controls. Mice were fed regular chow throughout the duration of the experiment.
For the injured carotid artery, serial 5 μm cryosections were taken of the carotid tissue distal to the collar. Five sections were collected on each slide and 15 to 25 slides were collected per arterial segment. The first five alternate slides were stained with Accustain elastic stain kit (Sigma) according to manufacturer's instructions. Measurement of lesion and vessel areas was performed on one section per stained slide using ProgRes CapturePro image analysis software (version 2.5.2.0, Jenoptik, Germany). The area between the internal and external elastic […] was taken as the medial area and the intimal area was calculated by subtracting the lumen area from the internal elastic lamina area. The intimal medial ratio (IMR) was then calculated by dividing the intimal area by the medial area. The IMR measurements were then averaged for each mouse.

C57BL/6 mice = experiment: Gene expression in aortas and lymphoid tissues after chronic Poly(I:C) stimulation for 3 weeks; assay type: in vivo; conditions: chronic stimulation 3 weeks
Excerpt: FIG. 10 Gene expression of anti-inflammatory factors is increased in aortas and lymphoid tissues in C57BL/6 mice treated with Poly(I:C) Aortas, spleens and para-aortic lymph nodes (PALN) of C57BL/6 mice that underwent carotid artery injury and PBS or Poly(I:C) treatment were collected at sacrifice. RNA was extracted and gene expression of CCL5, IFNβ, PD-L1, PD-L2, and IL-10 in the aorta (A), spleen (B) and PALN(C) was examined by RT-PCR. Bars show overall mean±SEM (n=4 mice per group, *p<0.05, **p<0.01 PBS v. Poly(I:C); unpaired student's t-test). Abbreviations: IFNβ: Interferon beta, IL-10: Interleukin-10, PD-L1: programmed death-ligand 1, PD-L2: programmed death-ligand 2.
as §3, §2

[6] = Poly(I:C) 25 μg/ml, FSL-1 100 ng/ml
[7] = single dose 250 μg i.p., 24 hours

Compound: CCCc1nc2c(N)nc3ccccc3c2s1 [CL075]
- Agonist strength for TLR8 relative to TLR7 (TLR8): ~10 ×

Compound: CCCCNc1nc(N)c2[nH]c(=O)n(Cc3ccc(C(=O)NCC(=O)O)cc3)c2n1 [CL264]
- TLR8 activation / stimulation (TLR8; CL264: even at high concentrations (>10 mg/ml)): does not stimulate TLR8

Compound: CpG ODN2006
- IFNα production [1]: Type I interferons are produced in the mixed cell culture population in response to TLR9 stimulation

Compound: FSL-1
- IL-6 expression, AthSMC compared to AoSMC [2, 6]: enhanced response
- IL-8 expression, AthSMC compared to AoSMC [2, 6]: enhanced response

Compound: IFNα
- TLR3 gene expression (AthSMC and AoSMC [3]; AoSMC and AthSMC, IFN 10 ng/mL): able to increase the expression of TLR3

Compound: Polyriboinosinic-polycytidylic acid [Poly(I:C)]
- Gene induction in aorta of ApoE−/− mice with advanced disease compared to young ApoE−/− ([4]; 30-week vs 10-week old ApoE−/− mice): more pronounced
- Gene induction in carotid artery tissue compared to aorta ([4]; CCL5, CCL2, VCAM1, single dose 250 μg): even more marked
- Expression of the induced genes in TLR3−/− mice ([4]; TLR3−/− mice, single dose 250 μg): almost abrogated
- A20 induction ([4]; mice, single dose 250 μg i.p.): A20 induction was not observed
- Aortic expression of CCL2/MCP-1 [4, 7]: induced the aortic expression
- Aortic expression of CCL5/RANTES [4, 7]: induced the aortic expression
- Aortic expression of IFNβ [4, 7]: induced the aortic expression
- Aortic expression of IL-10 [4, 7]: induced the aortic expression
- Aortic expression of PD-L2 [4, 7]: induced the aortic expression
- Aortic expression of VCAM-1 [4, 7]: induced the aortic expression
- TLR3 gene expression in vascular tissues (aorta, carotid arteries) ([4]; single dose 250 μg, 24 hours): up-regulated TLR3 gene expression
- Expression of selected genes of inflammatory cell recruitment (e.g. VCAM1, CCL5) and regulation of inflammation (e.g. A20, BIRC3/cIAP) (AthSMC and AoSMC [5]): significantly increased the expression
- TLR3 gene expression (AthSMC and AoSMC [3]; AoSMC, 25 μg/ml): not in AoSMC
- TLR3 gene expression (AthSMC and AoSMC [3]; AthSMC, 25 μg/ml): able to upregulate the expression of TLR3
- TLR3 dependent response in AthSMC compared to AoSMC (fold change in IL-6 production, FIG. 1B) ([2]; 25 μg/ml): over 40 fold
- CCL2/MCP-1 expression, AthSMC compared to AoSMC [2, 6]: enhanced expression
- IL-6 expression, AthSMC compared to AoSMC [2, 6]: enhanced expression
- IL-8 expression, AthSMC compared to AoSMC [2, 6]: enhanced expression
- Elastic lamina breaks (frequency, depth and width) (TLR3−/− mice): reduced the frequency, depth and width of the elastic lamina breaks
- Neointima formation, intima/media ratio, compared to vehicle (C57BL/6 and TLR3−/− mice; C57BL/6 mice, 250 μg i.p., 21 days after injury, p<0.001): significantly reduced
- Protection against neointima formation (C57BL/6 and TLR3−/− mice; TLR3−/− mice, 250 μg i.p., p>0.05): ablated
- End-weight of mice (C57BL/6 and TLR3−/− mice; all groups, Poly(I:C) or vehicle): No difference
- Expression of CCL5 in the aorta (C57BL/6 mice): significantly increased
- Expression of IFNβ in the aorta (C57BL/6 mice): significantly increased
- Expression of IFNβ mRNA in the spleen (C57BL/6 mice): induced
- Expression of IL10 in the aorta (C57BL/6 mice): significantly increased
- Gene expression of PD-L1 in the para-aortic lymph nodes (C57BL/6 mice): induced
- Gene expression of PD-L2 in the para-aortic lymph nodes (C57BL/6 mice): induced

Reference: patent US20140005255A1, “Agonists Of Toll Like Receptor For Treating Cardiovasuclar Disease And Obesity” (priority 2010, published 2014)
